In BindingDB's records for patent US20230322715 (University of California, 2023):

Tests used:
Test in all cases: In Vitro Inhibition Assay Method
[1] = biological target: Alpha-ketoglutarate-dependent dioxygenase FTO (Homo sapiens, UniProt Q9C0B1)
Protocol: (§1) Inhibitors were added in concentrations ranging from 0.008-40 μM; all inhibitors were dissolved in DMSO and added to a final concentration of 0.2% DMSO. […] After incubation at room temperature for 2 hours, the plates were left at 4 C. overnight (16 hours) to allow DFHBI-1T to bind to A7-Broccoli RNA. […] Sigmoidal dose-response curves were fitted in GraphPad Prism 6.

[2] = biological target: RNA demethylase ALKBH5 (Homo sapiens, UniProt Q6P6C2)
Protocol: as §1

[3] = biological target: T1, YTH domain-containing family protein 1 (Homo sapiens, UniProt Q9BYJ9)
T1 sequence (Q9BYJ9 whole entry): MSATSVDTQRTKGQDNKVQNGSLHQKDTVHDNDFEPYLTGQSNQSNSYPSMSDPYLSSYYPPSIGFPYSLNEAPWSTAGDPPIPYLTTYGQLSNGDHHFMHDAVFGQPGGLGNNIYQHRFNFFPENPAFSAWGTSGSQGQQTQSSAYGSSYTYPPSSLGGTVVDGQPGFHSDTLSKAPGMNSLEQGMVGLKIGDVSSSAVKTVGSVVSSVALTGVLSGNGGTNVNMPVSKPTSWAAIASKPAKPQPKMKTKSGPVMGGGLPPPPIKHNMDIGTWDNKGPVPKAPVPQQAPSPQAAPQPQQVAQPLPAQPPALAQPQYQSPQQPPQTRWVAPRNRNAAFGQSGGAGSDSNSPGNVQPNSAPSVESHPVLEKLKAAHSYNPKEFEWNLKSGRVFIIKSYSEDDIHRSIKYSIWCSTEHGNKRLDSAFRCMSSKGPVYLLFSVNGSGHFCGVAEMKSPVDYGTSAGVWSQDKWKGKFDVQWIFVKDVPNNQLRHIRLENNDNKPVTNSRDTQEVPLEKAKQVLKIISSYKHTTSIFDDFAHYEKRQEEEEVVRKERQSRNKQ
Protocol: as §1

[4] = biological target: T2, YTH domain-containing family protein 2 (Homo sapiens, UniProt Q9Y5A9)
T2 sequence (Q9Y5A9 whole entry): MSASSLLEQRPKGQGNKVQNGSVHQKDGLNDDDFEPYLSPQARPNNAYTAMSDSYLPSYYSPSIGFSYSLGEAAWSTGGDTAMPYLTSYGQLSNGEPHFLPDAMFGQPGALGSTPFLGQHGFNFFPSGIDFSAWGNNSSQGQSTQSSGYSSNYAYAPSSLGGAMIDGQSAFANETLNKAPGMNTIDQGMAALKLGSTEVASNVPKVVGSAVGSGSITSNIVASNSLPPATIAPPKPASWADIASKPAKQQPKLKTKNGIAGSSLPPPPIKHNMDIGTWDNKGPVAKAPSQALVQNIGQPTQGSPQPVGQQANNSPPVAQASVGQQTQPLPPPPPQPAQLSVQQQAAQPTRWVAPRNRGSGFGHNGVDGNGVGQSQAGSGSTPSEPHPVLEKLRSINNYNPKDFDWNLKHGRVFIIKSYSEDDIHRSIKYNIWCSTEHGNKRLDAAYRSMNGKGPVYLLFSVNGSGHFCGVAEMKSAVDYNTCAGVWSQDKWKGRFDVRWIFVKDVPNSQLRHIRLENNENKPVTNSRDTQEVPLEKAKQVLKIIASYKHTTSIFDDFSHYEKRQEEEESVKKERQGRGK
Protocol: as §1

Chain of Alpha-ketoglutarate-dependent dioxygenase FTO (Q9C0B1 whole entry): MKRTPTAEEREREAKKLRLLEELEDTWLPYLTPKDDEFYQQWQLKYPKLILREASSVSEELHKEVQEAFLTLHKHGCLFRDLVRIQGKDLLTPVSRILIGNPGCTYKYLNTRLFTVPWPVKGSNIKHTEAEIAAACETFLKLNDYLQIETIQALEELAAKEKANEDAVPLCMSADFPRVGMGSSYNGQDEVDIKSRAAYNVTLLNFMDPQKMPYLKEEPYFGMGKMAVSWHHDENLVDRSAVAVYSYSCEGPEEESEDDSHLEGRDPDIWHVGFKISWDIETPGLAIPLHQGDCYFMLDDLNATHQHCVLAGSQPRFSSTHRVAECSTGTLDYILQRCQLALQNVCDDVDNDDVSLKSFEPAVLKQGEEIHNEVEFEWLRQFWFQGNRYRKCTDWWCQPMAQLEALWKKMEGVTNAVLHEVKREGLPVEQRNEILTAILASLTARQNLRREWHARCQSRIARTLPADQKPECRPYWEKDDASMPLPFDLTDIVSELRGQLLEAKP
Chain of RNA demethylase ALKBH5 (Q6P6C2 whole entry): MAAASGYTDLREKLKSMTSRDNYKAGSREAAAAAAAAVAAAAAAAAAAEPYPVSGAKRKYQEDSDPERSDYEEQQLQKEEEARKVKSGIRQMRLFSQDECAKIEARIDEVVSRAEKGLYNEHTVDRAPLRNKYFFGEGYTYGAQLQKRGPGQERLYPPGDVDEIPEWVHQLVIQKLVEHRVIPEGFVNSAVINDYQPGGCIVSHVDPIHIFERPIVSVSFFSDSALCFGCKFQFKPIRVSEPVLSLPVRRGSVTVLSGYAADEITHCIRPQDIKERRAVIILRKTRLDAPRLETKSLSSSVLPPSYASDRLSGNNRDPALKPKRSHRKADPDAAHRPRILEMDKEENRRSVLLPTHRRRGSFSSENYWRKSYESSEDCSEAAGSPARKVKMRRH

Row | IC50 [1] | IC50 [2] | Ki [3] | Ki [4] | SMILES
1 | > 40000 nM | 2600 nM |  |  | O=S(=O)(Nc1ccc(Cl)c(Cl)c1)c1ccc(OC(F)(F)F)cc1 [US20230322715, Compound TR-ALKBH5-33]
2 |  |  | 13.4 nM | 5.59 nM | CSc1ccccc1Nc1ccc(CNC2CC2)cn1 [US20230322715, Compound TR-YTH-11]
3 |  |  | 0.399 nM | 0.128 nM | Fc1ccc(Nc2ccc(CNC3CC3)cn2)c(F)n1 [US20230322715, Compound TR-YTH-14]
4 |  |  | 0.473 nM | 0.15 nM | COc1cc(Nc2ccc(CNC3CC3)cn2)cc(OC)c1 [US20230322715, Compound TR-YTH-13]
5 |  |  | 0.605 nM | 0.333 nM | Cc1ccc(Nc2ccc(CN(C)C)cn2)cc1C [US20230322715, Compound TR-YTH-17]
6 | > 40000 nM | 450 nM |  |  | O=C(C1CC1)N1CCN(S(=O)(=O)c2ccc(OC(F)(F)F)cc2)CC1 [US20230322715, Compound TR-ALKBH5-41]
